These results are taken from patent US20210317134A1, “UBIQUITIN-SPECIFIC-PROCESSING PROTEASE 7 (USP7) MODULATORS AND USES THEREOF” (RAPT THERAPEUTICS, INC., priority 2019, published 2021).

The structures appear in SMILES notation. pIC50: −log10 of the molar value. Where only a bound is given, the exact number is not on record here.

The target in the experiment is USP7 (Homo sapiens, UniProt Q93009). The experiment can be described thus: USP7 inhibitory potency (Table 1). It counts as biochemical.
Sequence of USP7 (Q93009 whole entry): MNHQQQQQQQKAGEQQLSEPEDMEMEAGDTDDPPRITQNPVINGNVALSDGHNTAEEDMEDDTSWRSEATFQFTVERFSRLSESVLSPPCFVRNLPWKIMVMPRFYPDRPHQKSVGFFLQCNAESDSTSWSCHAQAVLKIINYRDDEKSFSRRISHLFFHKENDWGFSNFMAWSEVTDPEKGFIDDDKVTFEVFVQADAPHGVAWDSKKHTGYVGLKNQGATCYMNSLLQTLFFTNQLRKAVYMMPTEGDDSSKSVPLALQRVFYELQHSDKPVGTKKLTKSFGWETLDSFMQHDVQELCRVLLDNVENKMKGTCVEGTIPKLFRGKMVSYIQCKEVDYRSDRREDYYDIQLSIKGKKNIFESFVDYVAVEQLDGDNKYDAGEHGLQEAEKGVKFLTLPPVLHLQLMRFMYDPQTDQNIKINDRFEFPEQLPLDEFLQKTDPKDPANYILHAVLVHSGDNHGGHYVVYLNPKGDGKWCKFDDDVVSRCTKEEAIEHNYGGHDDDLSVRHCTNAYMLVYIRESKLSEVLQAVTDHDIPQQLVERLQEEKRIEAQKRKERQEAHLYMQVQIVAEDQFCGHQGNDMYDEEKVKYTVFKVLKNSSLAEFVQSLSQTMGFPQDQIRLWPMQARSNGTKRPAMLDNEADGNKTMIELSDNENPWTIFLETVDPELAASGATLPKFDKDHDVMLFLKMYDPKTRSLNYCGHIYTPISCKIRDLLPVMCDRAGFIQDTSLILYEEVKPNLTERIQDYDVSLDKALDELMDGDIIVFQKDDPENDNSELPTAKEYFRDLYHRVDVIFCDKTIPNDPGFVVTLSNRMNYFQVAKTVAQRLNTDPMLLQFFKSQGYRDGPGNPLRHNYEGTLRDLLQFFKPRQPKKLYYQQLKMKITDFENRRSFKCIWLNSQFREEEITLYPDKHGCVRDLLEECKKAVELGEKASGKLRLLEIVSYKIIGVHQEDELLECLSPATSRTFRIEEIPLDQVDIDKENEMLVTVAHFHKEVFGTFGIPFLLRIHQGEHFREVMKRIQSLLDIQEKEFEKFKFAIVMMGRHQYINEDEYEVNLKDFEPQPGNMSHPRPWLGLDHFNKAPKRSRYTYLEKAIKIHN
Regarding `N#Cc1ccc2nccc(-c3cc(Cl)cc4c3O[C@@H](c3onc5c3CNCC5)C4)c2c1` [(R)-4-(5-chloro-2-(4,5,6,7-tetrahydroisoxazolo[4,3-c]pyridin-3-yl)-2,3-dihydrobenzofuran-7-yl)quinoline-6-carbonitrile], the pIC50 (usually the negative decadic logarithm of the IC50, by convention in mol/L) is 5.00 to 6.00.

On to `N#Cc1ccc2c(-c3cc(Cl)cc4c3O[C@@H](c3onc5c3CNCC5)C4)ccnc2c1` [(R)-4-(5-chloro-2-(4,5,6,7-tetrahydroisoxazolo[4,3-c]pyridin-3-yl)-2,3-dihydrobenzofuran-7-yl)quinoline-7-carbonitrile], for which the pIC50 was above 6.00.

In turn, `NC(=O)c1ccc2c(-c3cc(Cl)cc4c3O[C@@H](c3onc5c3CNCC5)C4)ccnc2c1` [(R)-4-(5-chloro-2-(4,5,6,7-tetrahydroisoxazolo[4,3-c]pyridin-3-yl)-2,3-dihydrobenzofuran-7-yl)quinoline-7-carboxamide] gave a pIC50 of 5.00 to 6.00.

`CN1CCc2noc([C@H]3Cc4cc(Cl)cc(-c5ccnc6cc(C#N)ccc56)c4O3)c2C1` [(R)-4-(5-chloro-2-(5-methyl-4,5,6,7-tetrahydroisoxazolo[4,3-c]pyridin-3-yl)-2,3-dihydrobenzofuran-7-yl)quinoline-7-carbonitrile] showed a pIC50 of 5.00 to 6.00.

As to `Clc1cc2c(c(-c3ccnc4ccsc34)c1)O[C@@H](c1ocnc1CN1CCC1)C2` [(R)-4-(azetidin-1-ylmethyl)-5-(5-chloro-7-(thieno[3,2-b]pyridin-7-yl)-2,3-dihydrobenzofuran-2-yl)oxazole], the pIC50 is above 6.00.

`CNCCNC(=O)[C@H]1Cc2cc(Cl)cc(-c3ccnc4cc(CO)sc34)c2O1` [(R)-5-chloro-7-(2-(hydroxymethyl)thieno[3,2-b]pyridin-7-yl)-N-(2-(methylamino)ethyl)-2,3-dihydrobenzofuran-2-carboxamide] had a pIC50 above 6.00.

`N#Cc1cc2c(c(-c3ccnc4cc(CO)sc34)c1)O[C@@H](C(=O)N1CCNCC1)C2` [(R)-7-(2-(hydroxymethyl)thieno[3,2-b]pyridin-7-yl)-2-(piperazine-1-carbonyl)-2,3-dihydrobenzofuran-5-carbonitrile] had a pIC50 above 6.00.

In the case of `Cn1nc([C@H]2Cc3cc(Cl)cc(-c4ccnc5ccsc45)c3O2)c2c1CCNC2` [(R)-7-(5-chloro-2-(1-methyl-4,5,6,7-tetrahydro-1H-pyrazolo[4,3-c]pyridin-3-yl)-2,3-dihydrobenzofuran-7-yl)thieno[3,2-b]pyridine], the pIC50 was 5.00 to 6.00.

`Cn1nc2c(c1[C@H]1Cc3cc(Cl)cc(-c4ccnc5ccsc45)c3O1)CNCC2` [(R)-7-(5-chloro-2-(2-methyl-4,5,6,7-tetrahydro-2H-pyrazolo[4,3-c]pyridin-3-yl)-2,3-dihydrobenzofuran-7-yl)thieno[3,2-b]pyridine]: the pIC50 is above 6.00.

On to `Clc1cc2c(c(-c3ccnc4ccsc34)c1)O[C@@H](c1[nH]nc3c1CNCC3)C2` [(R)-7-(5-chloro-2-(4,5,6,7-tetrahydro-2H-pyrazolo[4,3-c]pyridin-3-yl)-2,3-dihydrobenzofuran-7-yl)thieno[3,2-b]pyridine], for which the pIC50 is above 6.00.

`N#Cc1cc2nccc(-c3cc(Cl)cc4c3O[C@@H](C(=O)N3CCNCC3)C4)c2o1` [(R)-7-(5-chloro-2-(piperazine-1-carbonyl)-2,3-dihydrobenzofuran-7-yl)furo[3,2-b]pyridine-2-carbonitrile] had a pIC50 of 5.00 to 6.00.

Consider `N#Cc1cc2nccc(-c3cc(Cl)cc4c3O[C@@H](C(=O)N3CCNCC3)C4)c2s1` [(R)-7-(5-chloro-2-(piperazine-1-carbonyl)-2,3-dihydrobenzofuran-7-yl)thieno[3,2-b]pyridine-2-carbonitrile], for which the pIC50 was 5.00 to 6.00.

Regarding `Cn1nc([C@H]2Cc3cc(Cl)cc(-c4ccnc5cc(Cl)ccc45)c3O2)c2c1CCNC2` [(R)-7-chloro-4-(5-chloro-2-(1-methyl-4,5,6,7-tetrahydro-1H-pyrazolo[4,3-c]pyridin-3-yl)-2,3-dihydrobenzofuran-7-yl)quinoline], the pIC50 is 4.52 to 5.00.

For the compound `Cn1nc2c(c1[C@H]1Cc3cc(Cl)cc(-c4ncnc5cc(Cl)ccc45)c3O1)CNCC2` [(R)-7-chloro-4-(5-chloro-2-(2-methyl-4,5,6,7-tetrahydro-2H-pyrazolo[4,3-c]pyridin-3-yl)-2,3-dihydrobenzofuran-7-yl)quinazoline], the pIC50 was above 6.00.

Compound `Clc1cc2c(c(-c3ccnc4cc(Cl)ccc34)c1)O[C@@H](c1[nH]nc3c1CNCC3)C2` [(R)-7-chloro-4-(5-chloro-2-(4,5,6,7-tetrahydro-2H-pyrazolo[4,3-c]pyridin-3-yl)-2,3-dihydrobenzofuran-7-yl)quinoline] gave a pIC50 of 5.00 to 6.00.

`Cn1nc2c(c1[C@H]1Cc3cc(Cl)cc(-c4ncnc5cc(CO)oc45)c3O1)CNCC2` [(R)-(4-(5-chloro-2-(2-methyl-4,5,6,7-tetrahydro-2H-pyrazolo [4,3-c]pyridin-3-yl)-2,3-dihydrobenzofuran-7-yl)furo[3,2-d]pyrimidin-6-yl)methanol] showed a pIC50 above 6.00.

In the case of `Cn1nc2c(c1[C@H]1Cc3cc(Cl)cc(-c4ncnc5cc(CO)sc45)c3O1)CNCC2` [(R)-(4-(5-chloro-2-(2-methyl-4,5,6,7-tetrahydro-2H-pyrazolo[4,3-c]pyridin-3-yl)-2,3-dihydrobenzofuran-7-yl)thieno[3,2-d]pyrimidin-6-yl)methanol], the pIC50 is above 6.00.

On to `OCC1(CO)Cc2nccc(-c3cc(Cl)cc4c3O[C@@H](c3onc5c3CNCC5)C4)c2C1` [(R)-(4-(5-chloro-2-(4,5,6,7-tetrahydroisoxazolo[4,3-c]pyridin-3-yl)-2,3-dihydrobenzofuran-7-yl)-6,7-dihydro-5H-cyclopenta[b]pyridine-6,6-diyl)dimethanol], for which the pIC50 was 5.00 to 6.00.

In turn, `OCc1cc2ncnc(-c3cc(Cl)cc4c3O[C@@H](c3onc5c3CNCC5)C4)c2o1` [(R)-(4-(5-chloro-2-(4,5,6,7-tetrahydroisoxazolo[4,3-c]pyridin-3-yl)-2,3-dihydrobenzofuran-7-yl)furo[3,2-d]pyrimidin-6-yl)methanol] gave a pIC50 above 6.00.

On to `NCc1cc(-c2cc(Cl)cc3c2O[C@@H](c2onc4c2CNCC4)C3)c2ccccc2n1` [(R)-(4-(5-chloro-2-(4,5,6,7-tetrahydroisoxazolo[4,3-c]pyridin-3-yl)-2,3-dihydrobenzofuran-7-yl)quinolin-2-yl)methanamine], for which the pIC50 was 5.00 to 6.00.

As to `OCc1ccc2c(-c3cc(Cl)cc4c3O[C@@H](c3onc5c3CNCC5)C4)ccnc2c1` [(R)-(4-(5-chloro-2-(4,5,6,7-tetrahydroisoxazolo[4,3-c]pyridin-3-yl)-2,3-dihydrobenzofuran-7-yl)quinolin-7-yl)methanol], the pIC50 was above 6.00.

Take `OCc1cc2ncnc(-c3cc(Cl)cc4c3O[C@@H](c3onc5c3CNCC5)C4)c2s1` [(R)-(4-(5-chloro-2-(4,5,6,7-tetrahydroisoxazolo[4,3-c]pyridin-3-yl)-2,3-dihydrobenzofuran-7-yl)thieno[3,2-d]pyrimidin-6-yl)methanol]: the pIC50 was above 6.00.

In the case of `O=C([C@H]1Cc2cc(Cl)cc(-c3ccnc4[nH]ccc34)c2O1)N1CCC(CCO)CC1` [(R)-(5-chloro-7-(1H-pyrrolo[2,3-b]pyridin-4-yl)-2,3-dihydrobenzofuran-2-yl)(4-(2-hydroxyethyl)piperidin-1-yl)methanone], the pIC50 was 4.52 to 5.00.

`O=C([C@H]1Cc2cc(Cl)cc(-c3ccnc4[nH]ccc34)c2O1)N1CCNCC1` [(R)-(5-chloro-7-(1H-pyrrolo[2,3-b]pyridin-4-yl)-2,3-dihydrobenzofuran-2-yl)(piperazin-1-yl)methanone] gave a pIC50 above 6.00.
